Source: article PMC7838297, “Acyl-CoA thioesterase activity of peroxisomal ABC protein ABCD1 is required for the transport of very long-chain acyl-CoA into peroxisomes” (Scientific Reports, 2021)

Columns and labels:
Type in all cases: biochemical
His-KpFAA2 = target: T1, His-KpFAA2 (Komagataella phaffii, UniProt F2QZH2); assay: acyl-CoA synthesis, TLC; details: 5 mM CoA, 5 mM ATP, 5 mM MgCl2, pH 7.5, 30 °C, 3 h
T1 construct: gene FAA2; His-tagged, expressed in K. phaffii SMD1168, metal-chelate purified as for His-ABCD1
T1 sequence (F2QZH2 1-741): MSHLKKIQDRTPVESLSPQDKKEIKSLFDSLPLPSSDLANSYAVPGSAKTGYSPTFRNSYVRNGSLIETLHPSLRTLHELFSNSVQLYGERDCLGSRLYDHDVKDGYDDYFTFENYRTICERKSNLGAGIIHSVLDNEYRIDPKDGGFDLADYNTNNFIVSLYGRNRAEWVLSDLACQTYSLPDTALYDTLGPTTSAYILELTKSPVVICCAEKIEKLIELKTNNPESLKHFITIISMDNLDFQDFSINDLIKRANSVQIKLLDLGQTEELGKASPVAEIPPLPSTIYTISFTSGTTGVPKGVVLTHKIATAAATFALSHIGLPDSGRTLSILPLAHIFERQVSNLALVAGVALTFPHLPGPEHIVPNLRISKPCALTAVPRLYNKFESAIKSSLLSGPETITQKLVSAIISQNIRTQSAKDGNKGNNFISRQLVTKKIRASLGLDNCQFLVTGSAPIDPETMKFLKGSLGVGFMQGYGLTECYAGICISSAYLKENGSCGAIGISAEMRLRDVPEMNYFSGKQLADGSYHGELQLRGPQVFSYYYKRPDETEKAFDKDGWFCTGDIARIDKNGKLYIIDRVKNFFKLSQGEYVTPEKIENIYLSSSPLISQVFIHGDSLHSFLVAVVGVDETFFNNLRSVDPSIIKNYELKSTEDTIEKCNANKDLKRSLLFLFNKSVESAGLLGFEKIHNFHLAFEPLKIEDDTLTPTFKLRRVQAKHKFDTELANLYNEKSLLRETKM

His-ABCD1 (human ABCD1) [1] = target: T2, His-ABCD1 (human ABCD1) (Homo sapiens, UniProt P33897); assay: ATPase, phosphate release; details: 5 mM ATP, 11 mM MgCl2, pH 7.6, 37 °C; ABCD1-liposomes
T2 construct: full-length, His-tagged (tag kept), expressed in Komagataella phaffii pxa1-delta, beta-DDM-solubilised, metal-chelate purified, reconstituted into soybean PC liposomes; about 80 kDa band

His-ABCD1 (human ABCD1) [2] = target: T2, His-ABCD1 (human ABCD1); assay: thioesterase assay by TLC; in-gel fluorescence of acylated protein; details: 1 mM MgCl2, 37 °C; ABCD1-liposomes; covalent acyl (thioester) intermediate
His-ABCD1 (human ABCD1) [3] = target: T3, His-ABCD1 (human ABCD1) (Homo sapiens, UniProt P33897, K513A); assay: as above; details: 1 mM MgCl2, 37 °C, 30 min; mutant liposomes; covalent acyl intermediate
T3 construct: full-length, His-tagged (tag kept), expressed in Komagataella phaffii pxa1-delta, beta-DDM-solubilised, metal-chelate purified, reconstituted into soybean PC liposomes; about 80 kDa band
T3 sequence (P33897 1-745 K513A): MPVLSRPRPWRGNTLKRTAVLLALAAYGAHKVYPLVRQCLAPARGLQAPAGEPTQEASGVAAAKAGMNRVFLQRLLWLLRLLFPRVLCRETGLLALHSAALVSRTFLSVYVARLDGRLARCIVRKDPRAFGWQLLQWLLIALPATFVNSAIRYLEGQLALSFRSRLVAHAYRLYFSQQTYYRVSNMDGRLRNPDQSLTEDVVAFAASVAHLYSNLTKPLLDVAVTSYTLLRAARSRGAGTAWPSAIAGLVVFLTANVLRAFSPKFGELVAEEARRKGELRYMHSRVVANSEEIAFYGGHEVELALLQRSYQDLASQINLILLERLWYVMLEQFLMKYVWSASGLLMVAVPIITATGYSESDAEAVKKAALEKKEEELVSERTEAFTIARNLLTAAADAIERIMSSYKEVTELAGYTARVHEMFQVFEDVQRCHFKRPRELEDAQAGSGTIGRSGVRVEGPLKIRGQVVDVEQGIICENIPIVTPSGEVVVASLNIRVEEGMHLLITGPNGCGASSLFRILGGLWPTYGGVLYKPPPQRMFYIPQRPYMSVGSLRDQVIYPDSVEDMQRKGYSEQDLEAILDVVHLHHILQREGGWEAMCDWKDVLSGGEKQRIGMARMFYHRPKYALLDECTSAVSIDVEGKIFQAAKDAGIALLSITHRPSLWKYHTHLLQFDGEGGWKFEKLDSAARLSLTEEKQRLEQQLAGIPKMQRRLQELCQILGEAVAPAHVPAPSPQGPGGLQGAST

His-ABCD1 (human ABCD1) [4] = target: T2, His-ABCD1 (human ABCD1); assay: liposome transport assay of NBD-C16, dithionite quench, TLC; details: read-out: residual NBD-C16 transport at 20 μM

O=C(O)CCCCCNc1ccc([N+](=O)[O-])c2nonc12 [NBD-C6]
acyl-CoA synthesis, TLC (His-KpFAA2): NBD-C6) was incubated with purified His-KpFAA2 to generate NBD-hexanoyl-CoA

Nc1ncnc2c1ncn2[C@@H]1O[C@H](COP(=O)(O)OP(=O)(O)OP(=O)(O)O)[C@@H](O)[C@H]1O [ATP]
ATPase, phosphate release (His-ABCD1 (human ABCD1) [1]): ABCD1-liposomes possess ATPase activity

CC(C)(COP(=O)(O)OP(=O)(O)OC[C@H]1O[C@@H](n2cnc3c(N)ncnc32)[C@H](O)[C@@H]1OP(=O)(O)O)[C@@H](O)C(=O)NCCC(=O)NCCSC(=O)CCCCCCCCCCCCCCCNc1ccc([N+](=O)[O-])c2nonc12 [NBD-C16-CoA]
thioesterase assay by TLC; in-gel fluorescence of acylated protein (His-ABCD1 (human ABCD1) [2]): demonstrating that ABCD1 is covalently labeled by NBD-C16
thioesterase assay by TLC; in-gel fluorescence of acylated protein (His-ABCD1 (human ABCD1) [3]): these mutants possess ACOT activity comparable to the wild type and exhibited covalent linkage

CCCCCCCCCCCCCCCC(=O)SCCNC(=O)CCNC(=O)[C@H](O)C(C)(C)COP(=O)(O)OP(=O)(O)OC[C@H]1O[C@@H](n2cnc3c(N)ncnc32)[C@H](O)[C@@H]1OP(=O)(O)O [palmitoyl-CoA]
remaining activity at 20 µM (His-ABCD1 (human ABCD1) [4]): 3.95 ± 0.7%
